# From patent US20220160705A1, “METHODS FOR CONTROLLING PROSTAGLANDIN-MEDIATED BIOLOGICAL PROCESSES” (Cornell University, priority 2019, published 2022)
# Entries after “also recorded” stand apart in the source; their conditions may differ.
# Legend:
# [1] = tested on: IRE1α-XBP1 signaling; assay: Xbp1s and Ptges mRNA in peritoneal leukocytes after acetic acid injection (RT-qPCR); format: in vivo, C57BL/6J mice; conditions: i.p. 6 hours and 30 minutes before 0.9% v/v acetic acid; KIRA6 25 mg/kg, MKC8866 20 mg/kg; vs vehicle
# Experimental: Total RNA was isolated using RNeasy Mini kit or QIAzol lysis reagent (Qiagen) according to the manufacturer's instructions. RNA (0.1-1 μg) was reverse-transcribed to generate cDNA using the qScript cDNA synthesis kit (Quantabio). Quantitative RT-PCR was performed using PerfeCTa SYBR green fastmix (Quantabio) and TaqMan Universal PCR master mix (Life Technologies) on a QuantStudio 6 Flex real-time PCR system (Applied Biosystems). Normalized gene expression was calculated by comparative threshold cycle method using ACTB or Actb as a control. Xbp1 splicing assays were performed as described by Lee et al. (Proc Natl Acad Sci USA 100, 9946 (Aug. 19, 2003)). PCR products were separated by electrophoresis through a 2.5% agarose gel and visualized by ethidium bromide staining. Primers used in this study are described in Table 9.
# (§1) To determine if pharmacological disabling of IRE1α-XBP1 signaling could reduce inflammatory visceral pain, two commercially available inhibitors of IRE1α were employed: the kinase domain-specific inhibitor KIRA6 (25 mg/kg) and the RNAse domain-specific inhibitor MKC8866 (20 mg/kg).
# (§2) These inhibitors were independently administered intraperitoneally to C57BL/6J mice 6 hours and 30 minutes before acetic acid injection, and writhing behaviors were recorded for 30 minutes.
# [2] = tested on: C57BL/6J mice; assay: Acetic acid-induced writhing model of inflammatory visceral pain; format: in vivo; conditions: i.p. 6 hours and 30 minutes before 0.9% v/v acetic acid (5 ml/kg); recorded for 30 minutes; KIRA6 25 mg/kg, MKC8866 20 mg/kg, Celecoxib 20 mg/kg; vs vehicle
# Experimental: (§3) All behavioral measurements were performed by a blinded observer before and after surgery (postoperative days 1-21) or acetic acid intraperitoneal injection (15-30 min). Animals were acclimated to the testing devices and/or places for 3 days, and baseline measurements were taken for at least 4 consecutive days before the surgery or acetic acid.
# Writhing spontaneous pain behaviors were evaluated after intraperitoneal injection of 0.9% acetic acid (v/v, 5 ml/kg). The number of writhing responses was quantified immediately after acetic acid injection for 30 min in 5 min intervals by an observer blinded to genotype. Writings induced acetic acid are overt stretching behaviors indicative of abdominal pain, a phenomenon that is dependent upon mPGES-1 and PGE2 (Kamei et al. J Biol Chem 279, 33684 (Aug. 6, 2004); Trebino et al. Proc Nat Acad Sci USA 100, 9044 (Jul. 22, 2003)).
# as §1, §2
# [3] = tested on: C57BL/6J mice; assay: Paw incision model of post-surgical pain, behavioral tests; format: in vivo; conditions: i.p. 6 hours and 30 minutes before paw incision, KIRA6 25 mg/kg, MKC8866 20 mg/kg; for flinching activity after paw incision / grimace score post-surgery / guarding score post-surgery / hind paw weight bearing distribution after paw incision / mechanical hypersensitivity (mechanical threshold) after paw incision / rearing activity after paw incision: Celecoxib 20 mg/kg, vs vehicle; for post-operative pain behaviors: figure legend
# Experimental: Plantar incision surgery was performed as described by Pogatzki & Raja (Anesthesiology 99, 1023 (October 2003)). Briefly, mice were anesthetized with isoflurane in oxygen (4% induction, 1.5%-2% for maintenance) and the right hind paw was aseptically cleaned with 10% povidone-iodine solution. Then, a 5 mm incision was made in the glabrous hind-paw skin from the heel to the base of the toes using a No. 11 scalpel and sterile technique. The underlying muscle and ligaments were elevated with a curved forceps and stretched for 6-8 seconds, without incising them. The incision was closed using 5.0 nylon mattress sutures.
# as §3
# Mice were placed in individual acrylic chambers on an elevated mesh floor for 30-45 min before testing. Two spontaneous pain-relate behaviors were evaluated, rearings and paw flinches. Following the acclimatization period, the number of total vertical rearings and paw flinches were quantified during a 2-min period. Vertical rearings were defined as the number of times that the animal stood supporting its weight on both hind limbs. Vertical rearings are a normal behavior in rodents, thus a reduction of this behavior is indicative of a protective way to prevent pain due to movement, which mimics pain induced by surgeries in humans. Spontaneous flinching of the affected paw was quantified every time that the animal shacked the affected paw without any stimulation. Flinches of the injured paw is a pain-related behavior that is indicative of breakthrough pain, similar to intense spontaneous spike of pain in humans with postoperative pain.
# Mechanical hypersensitivity was assessed after quantification of vertical rearings and spontaneous flinching. Mechanical withdrawal thresholds were calculated using the up-down method and applying force with calibrated Von Frey filaments (0.07-g, 0.17-g, 0.40-g, 0.60-g, 1.04-g, 1.37-g, and 2.0-g, Stoeling, Wood Dale, Ill., USA) to the plantar aspect of the paw for 5 seconds. Paw withdraws or flinching in response to a given applied force was noted as a positive response.
# Hind paw weight bearing distribution was determined using an incapacitance tester apparatus (Stoelting, Ill., version 5.64). This is a test for non-reflexive behaviors that represents a spontaneous pain-related behavior that mimics postoperative pain behaviors in humans (protection of the surgery site from normal activities). Before surgery, animals were habituated for at least 3 days to the apparatus, in which animals stand with each hind paw resting on individual weight plates inside an acrylic chamber. The apparatus measures the body weight distributed between the two hind paws over a 3 second period and provides the average measurement. The average value of each hind paw was used to determine the weight distribution ratio (ispsilateral/contralateral side). A ratio below one indicates a greater weight bearing on the contralateral paw and was therefore considered as a pain-related behavior.
# To determine whether pharmacological targeting of IRE1α could also modulate post-surgical pain. KIRA6 (FIG. 9A-9F) or MKC8866 (FIG. 10) was administered i.p. 6 hours and 30 minutes prior to paw incision surgery, and pain responses were monitored thereafter. […] Consistent with our results using conditional IRE1α-deficient mice, mechanical hypersensitivity remained unaltered upon administration of IRE1α inhibitors (FIGS. 9F and 10F). As a positive control, we administered equimolar amounts (20 mg/kg) of Celecoxib following the same scheme and route described above. […]
Structure (SMILES),Ptges expression in peritoneal leukocytes [1],Xbp1s expression in peritoneal leukocytes [1],number of writhings after acetic acid injection [2],flinching activity after paw incision [3],grimace score post-surgery [3],guarding score post-surgery [3],hind paw weight bearing distribution after paw incision [3],mechanical hypersensitivity (mechanical threshold) after paw incision [3],rearing activity after paw incision [3],post-operative pain behaviors [3]
CC(C)(C)c1nc(-c2ccc(NC(=O)Nc3cccc(C(F)(F)F)c3)c3ccccc23)c2c(N)nccn12 [KIRA6],significantly reduced,significantly reduced,reduced; also recorded: decreased,reduced,significantly reduced,significantly reduced,more balanced,unaltered,unchanged,reduces
COc1cc2c(C)c(CC(=O)N3CCOCC3)c(=O)oc2c(C=O)c1O [MKC8866],significantly reduced,significantly reduced,reduced; also recorded: decreased,reduced,significantly reduced,significantly reduced,more balanced,unaltered,unchanged,reduces
